According to article PMC4503722, “Novel Phenotypic Outcomes Identified for a Public Collection of Approved Drugs from a Publicly Accessible Panel of Assays” (PLoS ONE, 2015):
Like-named read-outs stand apart in the source and are kept apart here.

How the values were obtained:
[1] = system: SNU-C1; test: cells; format: cell-based; details: for Basal_Viability ATP SNU-C1 IC50/EC50: assay number 30
[2] = system: alkaline phosphatase (ALP) activity in C2C12 cells; format: cell-based; details: for WntCondMedia_Alk Phos C2C12 IC50/EC50: assay number 6
[3] = system: nuclear β-catenin in C2C12 cells; test: cells; format: cell-based; details: for WntCondMedia_bCatenin C2C12 IC50/EC50: assay number 5
[4] = system: DLD-1; test: cells; format: cell-based; details: for Basal_Viability ATP DLD-1 IC50/EC50: assay number 23
[5] = system: HCT116 cells treated with a GSK3β inhibitor; test: cells; format: cell-based; details: for GSK3b inh pretreated_Viability ATP HCT116 IC50/EC50: assay number 26, GSK3b inhibitor pretreated
[6] = target: T1, hp70S6K1 (RPS6KB1) (Homo sapiens, UniProt P23443); test: Cerep LANCE kinase assay hp70S6K1 (S1 assay 31); format: biochemical; details: for hp70S6K1 LANCE IC50/EC50: assay number 31
T1 construct: purchased Cerep (LANCE kinase assay platform, contract assay)

[7] = target: T2, hGSK3b (Homo sapiens, UniProt P49841); test: Cerep LANCE kinase assay hGSK3b (S1 assay 34); format: biochemical; details: for hGSK3b LANCE IC50/EC50: assay number 34
T2 construct: purchased Cerep (LANCE kinase assay platform, contract assay)

[8] = system: HeLa cells; test: cells; format: cell-based; details: for Hela CellCycMod PI 2N IC50/EC50: assay number 14; for Hela CellCycMod PI 4N IC50/EC50: assay number 16; for Hela CellCycMod PI MI IC50/EC50: assay number 17; for Hela CellCycMod PI Cell Number IC50/EC50: assay number 18
[9] = target: T3, hKDR (Homo sapiens, UniProt P35968); test: Cerep LANCE kinase assay hKDR (S1 assay 32); format: biochemical; details: for hKDR LANCE IC50/EC50: assay number 32
T3 construct: purchased Cerep (LANCE kinase assay platform, contract assay)

[10] = system: HCT116; test: cells; format: cell-based; details: for Basal_Viability ATP HCT116 IC50/EC50: assay number 25
[11] = system: SW480; test: cells; format: cell-based
[12] = system: Colo320; test: cells; format: cell-based
[13] = system: HT-29; test: cells; format: cell-based; details: for Basal_Viability ATP HT-29 IC50/EC50: assay number 28
[14] = target: T4, hFLT3 (Homo sapiens, UniProt P36888); test: Cerep LANCE kinase assay hFLT3 (S1 assay 35); format: biochemical; details: for hFLT3 LANCE IC50/EC50: assay number 35
T4 construct: purchased Cerep (LANCE kinase assay platform, contract assay)

[15] = target: T5, hJAK2 (Homo sapiens, UniProt O60674); test: Cerep LANCE kinase assay hJAK2 (S1 assay 33); format: biochemical; details: for hJAK2 LANCE IC50/EC50: assay number 33
T5 construct: purchased Cerep (LANCE kinase assay platform, contract assay)

[16] = system: RKO; test: cells; format: cell-based; details: for Basal_Viability ATP RKO IC50/EC50: assay number 29
[17] = system: ECFC/ADSC co-culture cell nuclei number
[18] = system: endothelial tube formation in co-cultures of ECFCs and ADSCs treated with VEGF; test: cells; format: cell-based, human

T1 sequence (P23443 whole entry): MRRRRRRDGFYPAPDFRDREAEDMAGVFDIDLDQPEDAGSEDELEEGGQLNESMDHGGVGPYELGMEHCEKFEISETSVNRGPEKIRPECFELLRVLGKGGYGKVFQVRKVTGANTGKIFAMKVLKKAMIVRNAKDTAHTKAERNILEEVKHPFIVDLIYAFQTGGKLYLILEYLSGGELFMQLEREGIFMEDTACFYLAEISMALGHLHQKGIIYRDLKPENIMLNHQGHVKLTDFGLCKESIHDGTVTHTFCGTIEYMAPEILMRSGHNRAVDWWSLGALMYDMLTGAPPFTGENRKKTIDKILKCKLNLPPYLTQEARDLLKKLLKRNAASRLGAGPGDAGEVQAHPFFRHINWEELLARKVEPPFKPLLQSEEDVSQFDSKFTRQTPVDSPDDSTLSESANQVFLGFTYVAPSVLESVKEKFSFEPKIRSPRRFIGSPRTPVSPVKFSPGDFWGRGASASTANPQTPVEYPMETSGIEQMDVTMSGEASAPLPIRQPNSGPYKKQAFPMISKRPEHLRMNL
T3 sequence (P35968 20-1356): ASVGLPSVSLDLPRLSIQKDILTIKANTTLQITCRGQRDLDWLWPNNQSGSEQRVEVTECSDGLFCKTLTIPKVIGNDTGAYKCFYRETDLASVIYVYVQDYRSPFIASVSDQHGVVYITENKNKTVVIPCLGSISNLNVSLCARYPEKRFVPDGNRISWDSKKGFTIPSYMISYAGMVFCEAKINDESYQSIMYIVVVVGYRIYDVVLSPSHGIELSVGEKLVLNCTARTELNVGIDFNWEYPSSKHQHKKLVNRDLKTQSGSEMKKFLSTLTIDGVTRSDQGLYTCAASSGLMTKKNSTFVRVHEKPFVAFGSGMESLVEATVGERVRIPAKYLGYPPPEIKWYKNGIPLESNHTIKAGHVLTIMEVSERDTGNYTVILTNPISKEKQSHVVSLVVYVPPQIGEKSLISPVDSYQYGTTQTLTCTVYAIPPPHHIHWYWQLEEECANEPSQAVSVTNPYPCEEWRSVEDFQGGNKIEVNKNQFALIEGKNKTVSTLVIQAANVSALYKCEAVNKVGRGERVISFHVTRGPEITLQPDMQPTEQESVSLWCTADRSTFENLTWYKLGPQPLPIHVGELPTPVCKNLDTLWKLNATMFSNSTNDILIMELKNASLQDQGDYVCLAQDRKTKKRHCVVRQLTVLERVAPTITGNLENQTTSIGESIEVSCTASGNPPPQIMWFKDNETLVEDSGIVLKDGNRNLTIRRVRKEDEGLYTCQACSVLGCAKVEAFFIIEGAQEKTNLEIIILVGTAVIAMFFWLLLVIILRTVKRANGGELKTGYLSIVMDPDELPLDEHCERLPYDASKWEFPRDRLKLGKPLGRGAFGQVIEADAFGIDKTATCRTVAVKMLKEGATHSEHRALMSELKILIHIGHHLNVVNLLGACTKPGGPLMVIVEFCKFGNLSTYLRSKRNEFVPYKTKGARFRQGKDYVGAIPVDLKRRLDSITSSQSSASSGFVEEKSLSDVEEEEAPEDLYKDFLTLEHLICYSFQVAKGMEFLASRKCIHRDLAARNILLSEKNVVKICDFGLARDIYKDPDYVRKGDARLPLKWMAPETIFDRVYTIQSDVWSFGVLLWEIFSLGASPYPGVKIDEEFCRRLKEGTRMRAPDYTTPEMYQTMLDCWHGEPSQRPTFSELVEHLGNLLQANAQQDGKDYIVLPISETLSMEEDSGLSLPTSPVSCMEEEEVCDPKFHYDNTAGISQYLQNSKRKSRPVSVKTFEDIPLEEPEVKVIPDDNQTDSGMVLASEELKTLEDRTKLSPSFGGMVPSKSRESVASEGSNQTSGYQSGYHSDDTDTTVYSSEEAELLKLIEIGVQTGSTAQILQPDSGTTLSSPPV
T2 sequence (P49841 whole entry): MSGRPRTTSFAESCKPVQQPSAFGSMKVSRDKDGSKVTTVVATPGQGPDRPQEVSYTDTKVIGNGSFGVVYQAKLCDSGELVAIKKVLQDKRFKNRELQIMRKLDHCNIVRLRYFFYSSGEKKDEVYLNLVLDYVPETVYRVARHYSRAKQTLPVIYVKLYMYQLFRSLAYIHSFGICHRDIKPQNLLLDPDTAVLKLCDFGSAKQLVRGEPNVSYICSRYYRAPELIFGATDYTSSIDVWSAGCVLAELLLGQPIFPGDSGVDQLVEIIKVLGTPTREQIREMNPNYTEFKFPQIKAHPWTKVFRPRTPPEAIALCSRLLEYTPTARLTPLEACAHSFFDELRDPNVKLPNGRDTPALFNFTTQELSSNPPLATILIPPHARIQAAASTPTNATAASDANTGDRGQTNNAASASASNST
T5 sequence (O60674 whole entry): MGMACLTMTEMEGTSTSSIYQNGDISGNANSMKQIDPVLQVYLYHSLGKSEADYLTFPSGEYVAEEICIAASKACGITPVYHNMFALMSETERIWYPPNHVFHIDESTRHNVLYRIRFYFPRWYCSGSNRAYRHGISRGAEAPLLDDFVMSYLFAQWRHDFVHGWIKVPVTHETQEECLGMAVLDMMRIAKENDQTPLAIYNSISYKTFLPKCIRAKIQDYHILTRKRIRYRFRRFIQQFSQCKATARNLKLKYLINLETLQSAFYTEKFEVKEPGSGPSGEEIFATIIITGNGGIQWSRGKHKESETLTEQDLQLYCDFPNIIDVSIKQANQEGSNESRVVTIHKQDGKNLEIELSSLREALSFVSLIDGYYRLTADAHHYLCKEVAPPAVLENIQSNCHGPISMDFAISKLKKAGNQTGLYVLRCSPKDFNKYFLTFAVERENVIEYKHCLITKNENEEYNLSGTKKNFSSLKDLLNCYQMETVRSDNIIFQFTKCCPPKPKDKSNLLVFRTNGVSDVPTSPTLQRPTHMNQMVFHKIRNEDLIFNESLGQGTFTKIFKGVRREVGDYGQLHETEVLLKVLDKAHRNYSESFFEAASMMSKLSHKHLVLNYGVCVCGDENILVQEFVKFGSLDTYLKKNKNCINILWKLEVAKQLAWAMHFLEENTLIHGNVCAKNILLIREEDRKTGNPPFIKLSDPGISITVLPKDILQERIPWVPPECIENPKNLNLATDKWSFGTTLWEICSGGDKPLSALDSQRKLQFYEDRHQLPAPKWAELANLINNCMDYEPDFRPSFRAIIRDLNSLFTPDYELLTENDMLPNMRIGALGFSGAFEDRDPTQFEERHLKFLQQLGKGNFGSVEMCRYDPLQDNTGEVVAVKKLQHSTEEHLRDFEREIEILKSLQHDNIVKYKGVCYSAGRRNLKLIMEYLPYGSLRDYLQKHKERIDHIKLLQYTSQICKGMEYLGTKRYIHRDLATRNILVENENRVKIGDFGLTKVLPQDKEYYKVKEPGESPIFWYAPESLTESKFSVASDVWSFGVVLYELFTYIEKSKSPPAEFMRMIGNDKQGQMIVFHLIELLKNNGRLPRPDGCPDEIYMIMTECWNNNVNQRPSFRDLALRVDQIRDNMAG
T4 sequence (P36888 27-993): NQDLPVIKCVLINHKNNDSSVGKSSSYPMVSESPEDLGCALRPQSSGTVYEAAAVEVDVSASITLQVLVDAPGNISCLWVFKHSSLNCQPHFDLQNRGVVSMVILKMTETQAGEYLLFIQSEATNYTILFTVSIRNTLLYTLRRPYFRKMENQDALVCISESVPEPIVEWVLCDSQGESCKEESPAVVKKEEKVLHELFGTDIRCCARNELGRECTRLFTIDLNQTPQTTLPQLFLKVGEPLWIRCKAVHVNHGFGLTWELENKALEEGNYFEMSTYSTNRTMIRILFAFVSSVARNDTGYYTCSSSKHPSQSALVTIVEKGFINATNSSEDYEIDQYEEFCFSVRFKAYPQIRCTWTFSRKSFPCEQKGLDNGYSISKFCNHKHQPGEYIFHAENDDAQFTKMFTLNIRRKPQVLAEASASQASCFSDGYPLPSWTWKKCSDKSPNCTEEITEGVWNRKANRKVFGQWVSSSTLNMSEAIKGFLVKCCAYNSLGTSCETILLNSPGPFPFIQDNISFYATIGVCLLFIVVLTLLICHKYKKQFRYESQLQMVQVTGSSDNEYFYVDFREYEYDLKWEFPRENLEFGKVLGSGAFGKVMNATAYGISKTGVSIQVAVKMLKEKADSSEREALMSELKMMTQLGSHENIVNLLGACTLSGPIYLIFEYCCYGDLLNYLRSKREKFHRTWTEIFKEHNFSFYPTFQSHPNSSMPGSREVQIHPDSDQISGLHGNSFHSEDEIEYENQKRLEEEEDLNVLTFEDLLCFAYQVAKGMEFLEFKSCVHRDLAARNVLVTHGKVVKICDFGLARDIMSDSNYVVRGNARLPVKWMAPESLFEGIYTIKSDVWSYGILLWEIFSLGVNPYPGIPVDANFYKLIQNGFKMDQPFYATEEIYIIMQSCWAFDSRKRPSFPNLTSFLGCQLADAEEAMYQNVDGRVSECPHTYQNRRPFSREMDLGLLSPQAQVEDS

COc1cccc2c1C(=O)c1c(O)c3c(c(O)c1C2=O)C[C@@](O)(C(C)=O)C[C@@H]3O[C@H]1C[C@H](N)[C@H](O)[C@H](C)O1 [NCGC00024246-15]
Basal_Viability ATP SNU-C1 IC50/EC50 ([1]; basal): 337.6 nM | WntCondMedia_Alk Phos C2C12 IC50/EC50 ([2]; concentration response): 6.1 nM | WntCondMedia_bCatenin C2C12 IC50/EC50 ([3]; concentration response): 369.1 nM | Basal_Viability ATP DLD-1 IC50/EC50 ([4]; basal): 188 nM | GSK3b inh pretreated_Viability ATP HCT116 IC50/EC50 [5]: 55.38 nM | hp70S6K1 LANCE IC50/EC50 [6]: > 20000 nM | hGSK3b LANCE IC50/EC50 [7]: > 20000 nM | Hela CellCycMod PI 2N IC50/EC50 ([8]; 2N): 10.16 nM | Hela CellCycMod PI S Phase IC50/EC50 ([8]; assay number 15, S phase): 9604.6 nM | Hela CellCycMod PI 4N IC50/EC50 ([8]; 4N): 46.45 nM | Hela CellCycMod PI MI IC50/EC50 ([8]; MI): 373.8 nM | Hela CellCycMod PI Cell Number IC50/EC50 [8]: 8.05 nM | hKDR LANCE IC50/EC50 [9]: > 20000 nM | Basal_Viability ATP HCT116 IC50/EC50 ([10]; basal): 50.86 nM | Basal_Viability ATP SW480 IC50/EC50 ([11]; assay number 24, basal): 1466 nM | Basal_Viability ATP Colo 320 IC50/EC50 ([12]; assay number 27, basal): 9247.6 nM | Basal_Viability ATP HT-29 IC50/EC50 ([13]; basal): 648.5 nM | hFLT3 LANCE IC50/EC50 [14]: > 20000 nM | hJAK2 LANCE IC50/EC50 [15]: > 20000 nM | Basal_Viability ATP RKO IC50/EC50 ([16]; basal): 118.2 nM

COC(=O)Nc1nc2ccc([S+]([O-])c3ccccc3)cc2[nH]1 (centres unmarked) [NCGC00095157-05]
IC50/EC50, WntCondMedia_Alk Phos C2C12 (assay number 6) ([2]; concentration response): 559.3 nM | IC50/EC50, WntCondMedia_bCatenin C2C12 (assay number 5) ([3]; concentration response): 468.3 nM | IC50/EC50, Basal_Viability ATP DLD-1 (assay number 23) ([4]; basal): > 20000 nM | IC50/EC50, GSK3b inh pretreated_Viability ATP HCT116 (assay number 26) ([5]; GSK3b inh pretreated): 1 nM | IC50/EC50, hp70S6K1 LANCE (assay number 31) [6]: > 20000 nM | IC50/EC50, hGSK3b LANCE (assay number 34) [7]: > 20000 nM | IC50/EC50, Hela CellCycMod PI 2N (assay number 14) ([8]; 2N): 326.3 nM | IC50/EC50, Hela CellCycMod PI 4N (assay number 16) ([8]; 4N): 331 nM | IC50/EC50, Hela CellCycMod PI Cell Number (assay number 18) ([8]; Cell Number): 257.5 nM | IC50/EC50, Hela CellCycMod PI MI (assay number 17) ([8]; MI): 241.1 nM | IC50/EC50, hKDR LANCE (assay number 32) [9]: > 20000 nM | IC50/EC50, Basal_Viability ATP HCT116 (assay number 25) ([10]; basal): 1 nM | IC50/EC50, Basal_Viability ATP SW480 (assay number 24) ([11]; basal): > 20000 nM | IC50/EC50, VEGF_ADSC\ECFC Angio Hoechst NucArea (assay number 3) [17]: > 10000 nM | IC50/EC50, Basal_Viability ATP HT-29 (assay number 28) ([13]; basal): > 20000 nM | IC50/EC50, hFLT3 LANCE (assay number 35) [14]: > 20000 nM | IC50/EC50, VEGF_ADSC\ECFC Angio CD31 TubeArea (assay number 2) [18]: 288.4 nM | IC50/EC50, hJAK2 LANCE (assay number 33) [15]: > 20000 nM | IC50/EC50, Basal_Viability ATP RKO (assay number 29) ([16]; basal): 1 nM

O=[N+]([O-])c1ccc(O)c2ncccc12 [NCGC00160664-03]
IC50/EC50, Basal_Viability ATP SNU-C1 (assay number 30) [1]: > 20000 nM | IC50/EC50, WntCondMedia_Alk Phos C2C12 (assay number 6) [2]: 6361.5 nM | IC50/EC50, WntCondMedia_bCatenin C2C12 (assay number 5) [3]: > 20000 nM | IC50/EC50, Basal_Viability ATP DLD-1 (assay number 23) [4]: 1375 nM | IC50/EC50, GSK3b inh pretreated_Viability ATP HCT116 (assay number 26) [5]: 375.1 nM | IC50/EC50, hp70S6K1 LANCE (assay number 31) [6]: > 20000 nM | IC50/EC50, hGSK3b LANCE (assay number 34) [7]: > 20000 nM | IC50/EC50, Hela CellCycMod PI 2N (assay number 14) [8]: 1702.8 nM | IC50/EC50, Hela CellCycMod PI 4N (assay number 16) [8]: > 10000 nM | IC50/EC50, Hela CellCycMod PI Cell Number (assay number 18) [8]: 295.2 nM | IC50/EC50, Hela CellCycMod PI MI (assay number 17) [8]: > 10000 nM | IC50/EC50, Hela CellCycMod PI S Phase (assay number 15) [8]: > 10000 nM | IC50/EC50, hKDR LANCE (assay number 32) [9]: > 20000 nM | IC50/EC50, Basal_Viability ATP HCT116 (assay number 25) [10]: 920.6 nM | IC50/EC50, Basal_Viability ATP SW480 (assay number 24) [11]: 604.6 nM | IC50/EC50, Basal_Viability ATP Colo 320 (assay number 27) [12]: 683.7 nM | IC50/EC50, Basal_Viability ATP HT-29 (assay number 28) [13]: > 20000 nM | IC50/EC50, hFLT3 LANCE (assay number 35) [14]: > 20000 nM | IC50/EC50, hJAK2 LANCE (assay number 33) [15]: > 20000 nM | IC50/EC50, Basal_Viability ATP RKO (assay number 29) [16]: 710.1 nM

CC(C)C[C@H](NC(=O)[C@H](CCc1ccccc1)NC(=O)CN1CCOCC1)C(=O)N[C@@H](Cc1ccccc1)C(=O)N[C@@H](CC(C)C)C(=O)[C@@]1(C)CO1 [NCGC00249613-02]
Basal_Viability ATP SNU-C1 IC50/EC50 [1]: 1.47 nM | WntCondMedia_Alk Phos C2C12 IC50/EC50 ([2]; concentration response): 15.2 nM | WntCondMedia_bCatenin C2C12 IC50/EC50 ([3]; concentration response): 29.2 nM | Basal_Viability ATP DLD-1 IC50/EC50 [4]: 6.96 nM | GSK3b inh pretreated_Viability ATP HCT116 IC50/EC50 [5]: 1.73 nM | hp70S6K1 LANCE IC50/EC50 [6]: > 20000 nM | hGSK3b LANCE IC50/EC50 [7]: > 20000 nM | Hela CellCycMod PI 2N IC50/EC50 ([8]; 2N): > 10000 nM | Hela CellCycMod PI 4N IC50/EC50 ([8]; 4N): > 10000 nM | Hela CellCycMod PI MI IC50/EC50 ([8]; MI): > 10000 nM | Hela CellCycMod PI Cell Number IC50/EC50 [8]: 9.9 nM | hKDR LANCE IC50/EC50 [9]: > 20000 nM | Basal_Viability ATP HCT116 IC50/EC50 ([10]; basal): 5.58 nM | VEGF_ADSC\ECFC Angio Hoechst NucArea IC50/EC50 [17]: 285.2 nM | Basal_Viability ATP HT-29 IC50/EC50 [13]: 3.18 nM | hFLT3 LANCE IC50/EC50 [14]: > 20000 nM | VEGF_ADSC\ECFC Angio CD31 TubeArea IC50/EC50 [18]: 20.4 nM | hJAK2 LANCE IC50/EC50 [15]: > 20000 nM | Basal_Viability ATP RKO IC50/EC50 [16]: 3.94 nM

COC(=O)Nc1nc2ccc(C(=O)C3CC3)cc2[nH]1 [NCGC00262953-01]
IC50/EC50, Basal_Viability ATP SNU-C1 (assay number 30) ([1]; basal): > 20000 nM | IC50/EC50, WntCondMedia_Alk Phos C2C12 (assay number 6) ([2]; concentration response): 683.6 nM | IC50/EC50, WntCondMedia_bCatenin C2C12 (assay number 5) ([3]; concentration response): 348.6 nM | IC50/EC50, hp70S6K1 LANCE (assay number 31) [6]: > 20000 nM | IC50/EC50, hGSK3b LANCE (assay number 34) [7]: 14940 nM | IC50/EC50, Hela CellCycMod PI 2N (assay number 14) ([8]; 2N): 417.3 nM | IC50/EC50, Hela CellCycMod PI 4N (assay number 16) ([8]; 4N): 416.4 nM | IC50/EC50, Hela CellCycMod PI Cell Number (assay number 18) ([8]; Cell Number): 296.9 nM | IC50/EC50, Hela CellCycMod PI MI (assay number 17) ([8]; MI): 402.4 nM | IC50/EC50, Hela CellCycMod PI S Phase (assay number 15) ([8]; S Phase): > 10000 nM | IC50/EC50, hKDR LANCE (assay number 32) [9]: 15140 nM | IC50/EC50, Basal_Viability ATP HCT116 (assay number 25) ([10]; basal): 173.5 nM | IC50/EC50, Basal_Viability ATP SW480 (assay number 24) ([11]; basal): > 20000 nM | IC50/EC50, Basal_Viability ATP Colo 320 (assay number 27) ([12]; basal): 155.6 nM | IC50/EC50, VEGF_ADSC\ECFC Angio Hoechst NucArea (assay number 3) [17]: > 10000 nM | IC50/EC50, Basal_Viability ATP HT-29 (assay number 28) ([13]; basal): 1682.3 nM | IC50/EC50, hFLT3 LANCE (assay number 35) [14]: 6140 nM | IC50/EC50, VEGF_ADSC\ECFC Angio CD31 TubeArea (assay number 2) [18]: 1191.4 nM | IC50/EC50, hJAK2 LANCE (assay number 33) [15]: > 20000 nM | IC50/EC50, Basal_Viability ATP RKO (assay number 29) ([16]; basal): 162.2 nM
